Experimental data published in patent publication US5304367A, “In vivo brain imaging agent and method for diagnosis of psychiatric disorders” (New York University, priority 1990, dated 1994).
Like-named read-outs stand apart in the source and are kept apart here.

Tests used:
βAR = format: binding, human
[1] = whole body distribution, mice, 2 μCi; format: in vivo, mouse
Protocol: In a subsequent study, whole body distribution was examined in mice following tail vein injection of 2 μCi ^125 I-iodopindolol. Animals were sacrificed at various time points up to 22 hours post-injection. Percent injected dose (%ID) was determined in 11 organs, blood and urine. At one minute, lungs contained the highest %ID (17%), heart 3-4 %ID and brain 0.3%ID.

β-adrenergic receptor = test: quantitative autoradiography of brain sections from suicides and controls ([125I]iodopindolol); format: binding, human
Protocol: Beta Receptor Autoradiography
Iodopindolol is a well characterized βAR antagonist with a very high affinity (<1 nM) and specificity (Barovsky, K. et al., supra). Receptor binding studies are performed according to techniques well known in the art (see, for example, Kuhar, M. J., supra; Rainbow, T. C. et al., 1982, 1984, supra). A preferred method is described herein, although it will be apparent to one of skill in the art that the disclosed method may be modified according to the tissue preparation and ligand used.
Slides holding tissue sections are incubated for about 70 min at approximately 25° C. with 0.15 nM ^125 I-iodopindolol (New England Nuclear, 2200 Ci/mmole) in 25 mM Tris buffer, pH 7.5, containing 150 mM NaCl. Nonspecific binding is determined in the presence of 1 μM propranolol (see Examples, below). Zinterol, a selective β2 blocker, or metoprolol, a selective β1 antagonist, are added to the incubation buffer at 0.1 μM to achieve selective labeling of the β1 and β2 receptor subtypes, respectively. The incubation is followed by three 20 min washes in the same ice cold buffer. Slides are then dipped in ice cold distilled water to remove buffer salts, dried on a 50° C. slide warmer and apposed to ^3 H-sensitive film (Amersham ^3 H-hyperfilm) for 48-96 hours. The film is coexposed to commercial iodine standards (available from Amersham, for example). Film is developed manually using standard developer and fixer such as those available from the Eastman-Kodak Company. Sections are stained with cresyl violet and structures identified from the stained sections with the assistance of atlases and neuroanatomical texts such as: Barr M. L., The Human Nervous System: An Anatomical Viewpoint. Harper and Row, New York (1974); Carpenter M. B., Human Neuroanatomy. Williams and Wilkins, Baltimore (1976); DeArmond S. J. et al., Structure of the Human Brain : A Photographic Atlas. Oxford University Press, New York (1974); Nieuwenhuys R. et al., The Human Central Nervous System, Springer-Verlag, New York (1981 ), which references are hereby incorporated by reference.
Autoradiograms are analyzed by computerized image analysis systems well-known in the art (for example, with the aid of an IBM-PC). The autoradiograms are placed on a light box and a video camera is used for image acquisition. […] Standard curves derived from the iodine standards are used to convert gray level readings into equivalents of fmol ^125 I-iodopindolol / mg tissue. Specific binding is calculated by subtracting nonspecific from total binding.
Fourteen suicide and 14 pair-matched control brains were collected over 3 years from the medical examiner's offices in New York City and Jaffa, ISRAEL. […] The results of the coroner's examination as well as the results of broad-spectrum toxicological tests performed by the forensic laboratory were made available within 8 weeks. Only drug-free and pathology-free brains were included. For each suicide brain, a control matched for sex and age group with a PMD under 48 hours was collected the same day or within a few days, so that the pairs are also matched for storage time. The brains from each pair were dissected or sectioned on the same day and receptors were labeled in the same experiment, by an experimenter blind to the identity of the samples.
For autoradiography, slices from frontal cortical and anterior basal ganglia levels were sectioned in a Bright Cryotome (a refrigerated whole-body microtome) at -15° C. Sections of 40 μm were thaw- mounted onto gelatin-coated glass slides and βARs were labeled with [^125 I]iodopindolol (Pazos et al., Brain Res. 358:324-328 (1982)); Rainbow et al., Proc. Natl. Acad. Sci. U.S.A., 81:1585-1589 (1984)). Receptors were labeled with 150 pM iodopindolol, with or without 10^-6 M propranolol to define non-specific binding. The autoradiograms were developed after 48 or 72 hours. […]

[2] = whole body distribution, female BALB/c mice, 500 μCi/kg; format: in vivo, mouse (BALB/c)

CC(C)NCC(O)COc1cccc2[nH]cc([125I])c12 (centres unmarked) [^125 I-iodopindolol]
specific binding (βAR; cingulate gyrus, external band, female, n=4): 1.20 ± 0.31 fmol [^125 I]iodopindolol/mg tissue
specific binding (βAR; cingulate gyrus, external band, male, n=10): 0.99 ± 0.18 fmol [^125 I]iodopindolol/mg tissue
specific binding (βAR; cingulate gyrus, internal band, female, n=4): 1.31 ± 0.24 fmol [^125 I]iodopindolol/mg tissue
specific binding (βAR; cingulate gyrus, internal band, male, n=10): 0.87 ± 0.16 fmol [^125 I]iodopindolol/mg tissue
specific binding (βAR; gyrus rectus, external band, female, n=3): 1.42 ± 0.13 fmol [^125 I]iodopindolol/mg tissue
specific binding (βAR; gyrus rectus, external band, male, n=9): 0.93 ± 0.18 fmol [^125 I]iodopindolol/mg tissue
specific binding (βAR; gyrus rectus, internal band, female, n=3): 1.24 ± 0.23 fmol [^125 I]iodopindolol/mg tissue
specific binding (βAR; gyrus rectus, internal band, male, n=9): 0.80 ± 0.13 fmol [^125 I]iodopindolol/mg tissue
specific binding (βAR; inferior frontal gyrus, external band, female, n=5): 1.08 ± 0.19 fmol [^125 I]iodopindolol/mg tissue
specific binding (βAR; inferior frontal gyrus, external band, male, n=11): 0.86 ± 0.13 fmol [^125 I]iodopindolol/mg tissue
specific binding (βAR; inferior frontal gyrus, internal band, female, n=5): 0.99 ± 0.16 fmol [^125 I]iodopindolol/mg tissue
specific binding (βAR; inferior frontal gyrus, internal band, male, n=11): 0.78 ± 0.13 fmol [^125 I]iodopindolol/mg tissue
specific binding (βAR; medial frontal gyrus, external band, female, n=5): 1.36 ± 0.23 fmol [^125 I]iodopindolol/mg tissue
specific binding (βAR; medial frontal gyrus, external band, male, n=13): 0.77 ± 0.12 fmol [^125 I]iodopindolol/mg tissue
specific binding (βAR; medial frontal gyrus, internal band, female, n=5): 1.09 ± 0.16 fmol [^125 I]iodopindolol/mg tissue
specific binding (βAR; medial frontal gyrus, internal band, male, n=12): 0.71 ± 0.10 fmol [^125 I]iodopindolol/mg tissue
specific binding (βAR; orbital gyri, external band, female, n=4): 1.46 ± 0.25 fmol [^125 I]iodopindolol/mg tissue
specific binding (βAR; orbital gyri, external band, male, n=11): 0.77 ± 0.12 fmol [^125 I]iodopindolol/mg tissue
specific binding (βAR; orbital gyri, internal band, female, n=4): 1.24 ± 0.18 fmol [^125 I]iodopindolol/mg tissue
specific binding (βAR; orbital gyri, internal band, male, n=10): 0.70 ± 0.10 fmol [^125 I]iodopindolol/mg tissue
specific binding (βAR; superior frontal gyrus, external band, female, n=6): 1.48 ± 0.25 fmol [^125 I]iodopindolol/mg tissue
specific binding (βAR; superior frontal gyrus, external band, male, n=16): 0.87 ± 0.09 fmol [^125 I]iodopindolol/mg tissue
specific binding (βAR; superior frontal gyrus, internal band, female, n=6): 1.24 ± 0.12 fmol [^125 I]iodopindolol/mg tissue
specific binding (βAR; superior frontal gyrus, internal band, male, n=16): 0.82 ± 0.07 fmol [^125 I]iodopindolol/mg tissue
specific binding (βAR; white matter, female, n=6): 0.78 ± 0.09 fmol [^125 I]iodopindolol/mg tissue
specific binding (βAR; white matter, male, n=16): 0.46 ± 0.04 fmol [^125 I]iodopindolol/mg tissue
radioactivity in all organs ([1]; between 2-4 hours post-injection): fell in all organs
brain, percent injected dose (%ID) ([1]; one minute, 2 μCi tail vein): 0.3 %ID
heart, percent injected dose (%ID) ([1]; one minute, 2 μCi tail vein): 3-4 %ID
lungs, percent injected dose (%ID) ([1]; one minute, 2 μCi tail vein): 17 %ID
brain levels, time course ([1]; until two hours post-injection): remained stable until two hours post-injection
lung radioactivity ([1]; until two hours post-injection): declined
stomach and intestine radioactivity ([1]; until two hours post-injection): increased
nonspecific binding (β-adrenergic receptor; FIG. 2, sagittal section, normal male, in the presence of propranolol): low and uniform throughout the section
[125I]iodopindolol bound (β-adrenergic receptor; caudate, control, n=5): 13.2 ± 4.0 fm/mg tissue
[125I]iodopindolol bound (β-adrenergic receptor; caudate, suicide, n=5): 15.4 ± 2.0 fm/mg tissue
[125I]iodopindolol bound (β-adrenergic receptor; cingulate gyrus, control, n=8): 11.8 ± 3.3 fm/mg tissue
[125I]iodopindolol bound (β-adrenergic receptor; cingulate gyrus, suicide, n=8, P < 0.04): 16.0 ± 2.7 fm/mg tissue
[125I]iodopindolol bound (β-adrenergic receptor; frontalis inferior, control, n=6): 14.2 ± 4.0 fm/mg tissue
[125I]iodopindolol bound (β-adrenergic receptor; frontalis inferior, suicide, n=6): 17.2 ± 4.1 fm/mg tissue
[125I]iodopindolol bound (β-adrenergic receptor; frontalis medius, control, n=8): 9.3 ± 4.0 fm/mg tissue
[125I]iodopindolol bound (β-adrenergic receptor; frontalis medius, suicide, n=8): 16.7 ± 3.5 fm/mg tissue
[125I]iodopindolol bound (β-adrenergic receptor; frontalis superior, control, n=9): 10.8 ± 2.6 fm/mg tissue
[125I]iodopindolol bound (β-adrenergic receptor; frontalis superior, suicide, n=9, P < 0.03): 17.2 ± 2.9 fm/mg tissue
[125I]iodopindolol bound (β-adrenergic receptor; putamen, control, n=5): 19.5 ± 1.1 fm/mg tissue
[125I]iodopindolol bound (β-adrenergic receptor; putamen, suicide, n=5): 17.4 ± 2.5 fm/mg tissue
[125I]iodopindolol bound (β-adrenergic receptor; white matter (cortical), control, n=9): 5.6 ± 1.8 fm/mg tissue
[125I]iodopindolol bound (β-adrenergic receptor; white matter (cortical), suicide, n=9): 6.7 ± 0.7 fm/mg tissue
brain levels relative to blood levels (mCi per gram of brain / mCi per ml blood) ([2]; 1 minute post-injection): about 1/5
brain levels, injected dose ([2]; 1 minute post-injection): less than 1 % of injected dose
urine levels ([2]; 1 minute post-injection): below the threshold of detection
highest concentrations of radioactivity (counts/gram of tissue) ([2]; 1 minute post-injection, 500 μCi/kg i.v.): in the lungs, followed by heart and other organs
receptor occupancy ([2]; 120 min, based on Bmax of approximately 2 pmole/gram brain): less than 1%
Bmax used for receptor occupancy ([2]; extrapolated from rat and human values): approximately 2 pmole/gram brain
brain levels, total injected dose ([2]; two hours later (120 min)): 0.06 % of total injected dose
highest activity, order of organs ([2]; two hours later (120 min)): highest activity was found in urine, followed by lung, heart and brain
